Measured values from patent publication US10350169B2, “Compositions and methods for bile acid particles” (UNIVERSITY OF UTAH RESEARCH FOUNDATION, priority 2014, dated 2019).

How the values were obtained:
[1] = test system: HepG2 xenograft mouse model; experiment: In vivo efficacy in tumor bearing animal model
Protocol: In vivo efficacy in a tumor bearing animal model. The in vivo anticancer efficacy of free DOX and the DDP/H-TCA composition was evaluated in a HepG2 xenograft mouse model. Animals which were treated with free DOX delivered via both orally and via IV administration were used as a control group, and DDP/H-TCA compositions were administered orally every 3 days at a dose of 4 mg DOX/kg, up to 18 days.
HepG2 cells (5×10^6 cells/mL) in 100 μL PBS were injected subcutaneously into the back of each mouse. When the tumor size reached approximately 100-150 mm^3, each mouse received an oral administration of PBS, 4 mg/kg DOX, or 4 mg/kg DOX in a DDP/H-TCA composition, once every three days. In addition, an equal amount of doxorubicin was intravenously (IV) administered in a control group. Tumors were measured every three days with a digital caliper and the tumor volume was calculated using the equation shown below.
To achieve a relatively high concentration, the lyophilized powder of DDP/H-TCA particles was reconstituted in DI water just prior to in vivo administration. First, the tumor growth inhibition efficacy of bile acid-coated DOX-loaded particles was investigated in a mouse xenograft model. Doxorubicin (DOX) at a dose of 4 mg/kg, or an equivalent amount of DOX formulated as DDP/H-TCA particles, was prepared and delivered via IV or oral administration every 3 days up to 18 days to monitor tumor progression. DOX-loaded particles without a bile acid (i.e. no TCA) were also tested as a non-targeted control formulation to evaluate the tumor inhibition efficacy of the TCA. Because tumors in the PBS control group were quite aggressive and reached over 10% of the animals' body weight around day 18, all treatments were terminated and all mice were sacrificed at day 18.

HT-29 xenograft = experiment: In vivo therapeutic efficacy in tumor bearing animal model; design: species or system NOD/SCID mice; details: oral, 10 mg/kg DOX, over 12 days
Protocol: In vivo therapeutic efficacy in a tumor bearing animal model. The in vivo anticancer efficacy of free DOX, the cationic DOX-loaded liposome without a bile acid coating (“DOX-liposome”), and the anionic DOX-loaded liposome with the CS-TCA coating (“DL/CS-TCA”) was evaluated in a xenograft mouse model. HT-29 cells (1×10^7 cells per mouse) were subcutaneously injected into the back of NOD/SCID mice (n=3). When the tumor size reached approximately 100-150 mm^3, each mouse received an oral administration of PBS, 10 mg/kg free DOX, 10 mg/kg DOX in the DOX-liposome composition, or 10 mg/kg DOX in the DL/CS-TCA composition, once every two days. Tumor size and body weight were measured every 2 days. Tumor volumes were measured with a digital caliper and the tumor volume was calculated using the equation shown below. Tumor volume=(Length×width^2)/2

[2] = cited from earlier work
HepG2 cells = experiment: In vitro cytotoxicity of polymers and DOX-loaded particles, MTT assay; type: cell-based, human; details: 0.01-100 ug/mL, 24, 48 and 72 hr
Protocol: In vitro cytotoxicity of DOX-loaded particles. To evaluate the cytotoxicity of the polymers and DOX-loaded particles, samples were transfected in a dose-dependent manner and evaluated by an MTT-based cell viability assay using HepG2 cells. Cell Culture: HepG2 cells (a human hepatoma cell line) were cultured in DMEM supplemented with 10% FBS and D-glucose (4.5 g/L). Cells were grown and maintained under humidified air containing 5% CO2 at 37° C. Cell Viability: a MTT assay was used to evaluate the cell viability of bile acid-linked polymers and DOX-loaded particles. HepG2 cells were seeded into a 96-well plate at a cell density of 5×10^3 cells/well in 100 μL media. […] MTT (10 μL; 5 mg/mL) solution was then added to the wells and incubated for 4 hr. All remaining media was aspirated, and DMSO (100 μL) was added to dissolve the formazan crystals produced from living cells with 10 min incubation at 37° C. The absorbance of the cells was measured at 570 nm and their cell viability was calculated.

[3] = cited from earlier work; remark: listed apart in the source
[4] = DOX biodistribution in tumor-bearing mice (DOX fluorescence); type: in vivo, HepG2 tumor-bearing NOD/SCID mice; details: IV injection, 4 hr, versus orally administered groups
Protocol: Biodistribution. A biodistribution study was performed in HepG2 tumor-bearing NOD/SCID mice. The major organs and intestinal tract of each mouse were collected 4 hr after administration of the formulations. The liver, kidney, heart, stomach, small intestine including duodenum, jejunum, ileum, and tumor of each mouse was collected and suspended in 70% ethanol with 0.3 N HCl. The samples were then homogenized to extract the doxorubicin, and then the samples were refrigerated for 24 hr and centrifuged to collect supernatant. For analysis, 200 μL of the supernatant was loaded in a black opaque plate and DOX fluorescence was measured using a plate reader, where the wavelengths of excitation and emission were 470 and 590 nm, respectively.

caco-2 cells = experiment: In vitro cellular uptake of insulin-Ce6 liposomes; type: cell-based, Human; details: insulin-Ce6 10 ug/mL, 4 hr
Protocol: In vitro cellular uptake. Human epithelial colorectal adenocarcinoma cells (caco-2 cells) were maintained in Dulbeco's Modified Eagle's Medium (DMEM) with 1% penicillin-streptomycin and 10% FBS in a humidified standard incubator at 37° C. with a 5% CO2 atmosphere. Prior to testing, cells (1×10^5 cells/mL) that were grown as a monolayer were harvested via trypsinization using a 0.25% (wt/vol) trypsin/0.03% (wt/vol) EDTA solution. Caco-2 cells suspended in DMEM were seeded onto each well plate and cultured for 24 hours prior to the in vitro cell testing. The cellular uptake of the liposomes (provided in an amount equivalent to an insulin-Ce6 concentration of 10 ug/mL, treated for 4 hr) was monitored by FACSCalibur Flow Cytometer (Becton Dickinson, USA). In addition, the localization of the liposome was examined by fluorescence of the insulin-Ce6 loaded liposome using a confocal laser scanning microscope.

Compound	body weight ([1]; 4 mg DOX/kg every 3 days up to 18 days)	inhibition of tumor growth ([1]; IV, 4 mg/kg every 3 days, up to 18 days)	increase in tumor volume ([1]; oral, 4 mg DOX/kg every 3 days, up to 18 days) [%]	change in tumor volume (HT-29 xenograft)	relative body weight (HT-29 xenograft)	pKa [2]	cytotoxicity (cell viability) (HepG2 cells)	oral bioavailability [3]	DOX concentration in heart and liver tissues [4]	labeled insulin present in cells (caco-2 cells)
COc1cccc2c1C(=O)c1c(O)c3c(c(O)c1C2=O)C[C@@](O)(C(=O)CO)C[C@@H]3O[C@H]1C[C@H](N)[C@H](O)[C@H](C)O1 [DOX, doxorubicin]	no significant weight loss	greatest inhibition of tumor growth	~1400	not statistically better at reducing tumor volume than the buffer	decrease slightly	7.2-8.0	highest dose-dependent cytotoxicity	about 5%	higher concentration of DOX was seen in the heart and liver tissues	–
free insulin: Ce6-labeled insulin given without liposomes	–	–	–	–	–	–	–	–	–	relatively little labeled insulin present
